Our source for the IC50 values is patent publication US4786755A, “Diphenic acid monoamides” (Warner-Lambert Company, priority 1986, dated 1988).

In general, IC50 refers to the midpoint of a concentration-inhibition curve.

The target of the experiment is T1, leukotriene receptor (Cavia porcellus, UniProt Q2NNR5).
T1 construct: 20 mg original tissue wet weight of guinea pig lung membranes; tissue Kuiper Rabbit Farm, Gary, IN (animals); host or cells: guinea pig lung, crude membranes
T1 sequence (Q2NNR5 1-340): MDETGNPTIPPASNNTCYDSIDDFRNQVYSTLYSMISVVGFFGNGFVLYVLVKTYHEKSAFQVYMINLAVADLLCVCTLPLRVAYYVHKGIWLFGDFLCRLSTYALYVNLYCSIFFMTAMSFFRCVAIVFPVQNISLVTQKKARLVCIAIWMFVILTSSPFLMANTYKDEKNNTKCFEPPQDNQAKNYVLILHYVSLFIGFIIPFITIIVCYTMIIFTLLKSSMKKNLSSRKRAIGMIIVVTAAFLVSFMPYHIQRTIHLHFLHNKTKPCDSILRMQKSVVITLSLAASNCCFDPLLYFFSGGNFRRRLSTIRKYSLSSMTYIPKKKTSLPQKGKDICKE
The experiment in a line: Binding of ^3 H-Leukotriene D4 to Guinea Pig Lung Membranes (RBL). The conditions noted are these: ^3 H-LTD4, guinea pig lung membranes; read-out: IC50 RBL1. How it is done:
Additionally, the activity, of the compounds having the Formula I of the present invention is determined by the well known leukotriene receptor binding assay that is described by R. F. Bruns, W. J. Thomsen and T. A. Pugsley in Life Sciences, 33, 645 (1983) or the Herxheimer in vivo antiallergy test described in H. Herxheimer, J. Physiol. (London), Vol. 177, p. 251 (1952).
Binding of ^3 H-Leukotriene D4 to Guinea Pig Lung Membranes (RBL)
[14,15-^3 H]leukotriene D4 (^3 H-LTD4) (25 Ci/mmol and 40 Ci/mmol) is purchased from New England Nuclear. Unlabeled LTC4 is a gift of Ono Pharmaceuticals (Japan). LTC4, LTD4, and LTE4 are purchased as methyl esters from Paesel GmbH (Frankfurt, W. Germany). Concentrations of the Paesel leukotrienes are calculated from their absorbance at 280 nm. Leukotriene esters are saponified overnight under N2 in 3.3% potassium carbonate at room temperature. Tritiated leukotrienes are stored as received from New England Nuclear at -20° C. Ono LTC4 (5 μg/ml is stored at -60° C. in phosphate buffer pH 6.8. Saponified Paesel leukotrienes are stored at -60° C. in 3.3% potassium carbonate (pH 9.0-9.5). Aliquots of leukotrienes are taken from stock solutions immediately after thawing, after which the stock solutions are immediately refrozen. 2-Amino-2-(hydroxymethyl)-1,3-propanediol (Tris) is Sigma pH 7.7 pre-set crystals, and dimethylsulfoxide is Aldrich Gold Label.
Preparation of crude lung membranes
Two pairs of lungs (1.3 g) from freshly sacrificed 300 g male guinea pigs (older animals gave substantially lower binding) from Kuiper Rabbit Farm, Gary, IN are disrupted with a Polytron PT 10 (setting 4) for 30 seconds in 20 ml ice-cold 50 mM Tris adjusted with HCl to pH 7.7 at 25° C. (Tris buffer), filtered through a single layer of gauze to remove connective tissue, and centrifuged at 50,000 xg for ten min. The pellet is resuspended by homogenization with a Polytron in 20 ml Tris buffer, centrifuged at 50,000 xg for ten min., resuspended, incubated at 37° C. for 30 minutes, and centrifuged again. The final pellet is resuspended in Tris buffer and either used fresh or stored at -70° C.
All incubations are in triplicate for 60 minutes at 25° C. in 12×75 mm polystyrene tubes containing 1 ml Tris buffer with 20 mg original tissue wet weight of guinea pig lung membranes, 0.2 nM ^3 H-LTD4 (6,000-11,000 cpm), 10 mM MgCl2, and 1% dimethylsulfoxide. Leukotrienes are diluted in Tris buffer. All other test compounds are dissolved at 10 mM in dimethylsulfoxide on the same day as the experiment, and diluted in dimethylsulfoxide to 100× the final incubation concentration. Control incubations receive an equal volume (10 μl) of dimethylsulfoxide; the resulting concentration of dimethylsulfoxide had no effect on binding. ^3 H-LTD4 is diluted to 2 nM in Tris buffer. The membrane suspension (20 mg/0.89 ml) contains sufficient MgCl2 to give 10 mM final concentration in the incubation. […] All additions are performed at 0° C. Immediately after the last addition, the incubation is initiated by agitating the rack of tubes on a vortex mixer and warming to 25° C. in a water bath. Tubes are vortexed at least once more during the incubation to ensure that the membranes remained suspended. Incubations are terminated after 60 minutes by filtering under reduced pressure through 25 mm Whatman GF/B filters followed by rapid washing three times with 4 ml of ice-cold Tris buffer. Filters are added to scintillation vials with 8 ml Formula 947 (New England Nuclear), left overnight, shaken, and the radioactivity counted in a scintillation counter (efficiency 40%). Nonspecific binding, defined as binding of ^3 H-LTD4 in the presence of 100 nM LTC4, is 300-500 cpm for all lots of ^3 H-LTD4. Binding to the filters in the absence of tissue is about 100 cpm, and is not affected by unlabeled LTC4. Specific binding, defined as total binding minus nonspecific binding, varied considerably from lot to lot of ^3 H-LTD4. […]
With `O=C(O)c1ccccc1-c1ccccc1C(=O)Nc1ccc(CCCc2ccc(Cl)c(Cl)c2)cc1` [Example 1, [1,1'-Biphenyl]-2-carboxylic acid, 2'-[[[4-[3-(3,4-dichlorophenyl)propyl]phenyl]amino]carbonyl]-], the IC50 turned out to be 1 µM.

On to `O=C(O)c1ccccc1-c1ccccc1C(=O)Nc1ccc(OCCCc2ccccc2)cc1` [Example 2], for which the IC50 turned out to be 4.6 µM.

Consider `O=C(O)c1ccccc1-c1ccccc1C(=O)Nc1ccc(CCc2ccc(Cl)c(Cl)c2)cc1` [Example 3, [1,1'-Biphenyl]-2-carboxylic acid, 2'-[[[4-[2-(3,4-dichlorophenyl)ethyl]phenyl]amino]carbonyl]-], for which the IC50 was 4.8 µM.

Consider `O=C(O)c1ccccc1-c1ccccc1C(=O)Nc1cccc(CCc2ccc(Cl)c(Cl)c2)c1` [Example 4, [1,1'-Biphenyl]-2-carboxylic acid, 2'-[[[3-[2-(3,4-dichlorophenyl)ethyl]phenyl]amino]carbonyl]-], for which the IC50 was 8.5 µM.

Take `CN(C(=O)c1ccccc1-c1ccccc1C(=O)O)c1ccc(CCc2ccc(Cl)c(Cl)c2)cc1` [Example 5, [1,1'-Biphenyl]-2-carboxylic acid, 2'-[[[4-[2-(3,4-dichlorophenyl)ethyl]phenyl]methylamino]carbonyl]-]: the IC50 was found to be 14.5 µM.

For `COc1ccc(CCc2ccc(NC(=O)c3ccccc3-c3ccccc3C(=O)O)cc2)cc1OC` [Example 7, [1,1'-Biphenyl]-2-carboxylic acid, 2'-[[[4-[2-(3,4-dimethoxyphenyl)ethyl]phenyl]amino]carbonyl]-], the half-maximal inhibitory concentration (IC50) came to 88.7 µM.

Consider `CN(C(=O)c1ccccc1-c1ccccc1C(=O)O)c1ccc(CCc2ccc(Cl)cc2)cc1` [Example 8], for which the IC50 stood at 28.7 µM.

With `O=C(O)c1ccccc1-c1ccccc1C(=O)Nc1ccc(Cc2ccc(Cl)c(Cl)c2)cc1` [Example 9], the half-maximal inhibitory concentration (IC50) was 6.5 µM.

For `O=C(O)c1ccccc1-c1ccccc1C(=O)Nc1ccc(CCc2ccc(Cl)cc2)cc1` [Example 11, [1,1'-Biphenyl]-2-carboxylic acid, 2'-[[4-[2-[(4-chlorophenyl)ethyl]phenyl]amino]carbonyl]-], the half-inhibitory concentration (IC50) came out at 13.5 µM.

`O=C(O)c1ccccc1-c1ccccc1C(=O)Nc1ccc(CCCCc2ccc(Cl)c(Cl)c2)cc1` [Example 15, [1,1'-Biphenyl]-2-carboxylic acid, 2'-[[[4-[4-(3,4-dichlorophenyl)butyl]phenyl]amino]carbonyl]-]: the half-maximal inhibitory concentration (IC50) came to 4.2 µM.

For `O=C(O)c1ccccc1-c1ccccc1C(=O)Nc1ccc(CCCc2ccccc2)cc1` [Example 16, [1,1'-Biphenyl]-2-carboxylic acid, 2'-[[[4-(3-phenylpropyl]phenyl]amino]carbonyl]-], the 50% inhibitory concentration (IC50) is 4.3 µM.

For the compound `O=C(O)c1ccccc1-c1ccccc1C(=O)Nc1ccc(CCCCc2ccccc2)cc1` [Example 19, [1,1'-Biphenyl]-2-carboxylic acid, 2'-[[[4-(4-phenylbutyl)phenyl]amino]carbonyl]-], the half-inhibitory concentration (IC50) worked out at 6.7 µM.

Consider `O=C(O)c1ccccc1-c1ccccc1C(=O)Nc1ccc(CCCCCc2ccccc2)cc1` [Example 21, [1,1'-Biphenyl]-2-carboxylic acid, 2'-[[[4-(5-phenylpentyl)phenyl]amino]carbonyl]-], for which the IC50 was 2.3 µM.
